Test results reported in patent publication US6482586B1 (priority 1996, dated 2002).
Like-named read-outs stand apart in the source and are kept apart here.

Tests used:
XF-498 cells [1] = assay: Cell sensitization to VT by butyrate treatment; format: cell-based, human; conditions: for effect on XF-498 cell sensitivity to VT1 (in words): cells cultured in 2 mM propionate or capronate
Experimental: Semiconfluent cells in microtiter plates were incubated in triplicates with ten fold VT binding domain dilutions and remaining cells after 72 hr were quantitated by staining with 0.1% crystal violet and measuring the optical density at 570 nm using a microtiter plate reader (31).
(§1) XF-498 astrocytoma, ovarian tumour and vero cell lines were cultured in media containing 2 mM sodium butyrate (or propionate or capronate for astrocytoma cells).

XF-498 cells [2] = assay: Morphology and growth of treated XF-498 cells; format: cell-based, human; conditions: for effect on morphology of XF-498 cells: compound alone in culture medium
Experimental: as §1
(§2) PPMP(1-phenyl-2-hexadecanoylamino-3-morpholino-1-propanol, Matreya Inc. , Pleasant Gap, Pa.) is a potent inhibitor of glucosylceramide synthesis (36) and thereby prevents the synthesis of most glycolipids. Experiments extablished that 27 μM PPMP was able to inhibit glycosphingolipid synthesis without inducing cell death. XF-498 astrocytoma and vero cells were then incubated at 37° C. with 27 μM PPMP in the presence and absence of 2 mM butyrate for 6-7 days.

[3] = tested on: glycosphingolipid synthesis; assay: Inhibition of glycolipid synthesis; format: cell-based
Experimental: as §2

Gb3 in XF-498 cells = format: cell-based, human
Experimental: After trypsinization, cells (˜1×10^6) were washed with PBS three times, resuspended in a minimum volume, and extracted with 20 volumes of chloroform/methanol (C/M) 2:1 by vol. The extract was partitioned against water and the lower phase partitioned again against theoretical upper phase. The combined lower phase was then evaporated, saponified with 1 N NaOH in methanol and glycolipids reextracted as above . The dried lower phase was dissolved in CM 98:2 and separated by silica chromatography(32). The column was washed extensively with chloroform and glycolipid eluted in acetone/methanol (9:1 by vol.). Gb3 present was detected by tlc overlay binding with VT binding domain1 (16).
Aliquots of the glycolipid extract of human tumor samples or of tumor cell lines were separated by TLC {chloroform, methanol, water-65:25:4 (v/v/v)}. The plates were dried and blocked with 1% gelatin in water at 37° C. overnight. They were then washed three times with 50 mM TBS for 5 min and incubated with 0.1 μg/ml toxin for 1 hour at R.T. After further washing with TBS, plates were incubated with mouse monoclonal anti-VT binding domain1 antibody(33) (2 μg/ml) for VT binding domain1 followed by peroxidase-conjugated goat anti-mouse antibody . Finally, the plates were washed with TBS, and toxin binding was visualized with 4-chloro-1-naphthol peroxidase substrate. A similar plate was prepared and sprayed with orcinol for comparison of glycolipid content.

XF-498 cells [4] = format: cell-based, human
Gb3 of XF-498 cells = assay: HPLC analysis of Gb3 fatty acid composition; format: cell-based, human; conditions: butyrate treated XF-498
[5] = XF-498 cells after treatment, VT1 TLC overlay

## CCCCCCCCCCCCCCCC(=O)NC(CN1CCOCC1)C(O)c1ccccc1 (stereo not drawn) [PPMP, 1-phenyl-2-hexadecanoylamino-3-morpholino-1-propanol]
XF-498 cells [1]; 27 μM PPMP with 2 mM butyrate, not shown
  effect on butyrate induced VT1 sensitivity of XF-498 cells: prevented
XF-498 cells [2]; PPMP in presence of butyrate
  effect on butyrate-induced morphological changes: prevented the butyrate-induced morphological changes
XF-498 cells [2]
  effect on morphology of XF-498 cells: no effect
[3]
  concentration able to inhibit glycosphingolipid synthesis without inducing cell death: 27 µM

## CCCC(=O)[O-].[Na+] [butyrate, sodium butyrate]
XF-498 cells [1]; cells cultured in 2 mM sodium butyrate
  increase in XF-498 cell sensitivity to VT1: 5000 fold
XF-498 cells [2]
  effect on morphology of XF-498 cells: profound effect
Gb3 in XF-498 cells; [5]
  change in slower migrating Gb3 band: dramatic, selective increase
XF-498 cells [4]
  effect on intracellular routing of VT1 B: marked change in the intracellular routing
Gb3 of XF-498 cells
  fatty acid content of the slow migrating Gb3 species: markedly increased C16 and decreased C24 fatty acid content

## CCCCCC(=O)O [capronate]
XF-498 cells [1]
  effect on XF-498 cell sensitivity to VT1 (in words): no effect
XF-498 cells [2]
  effect on morphology of XF-498 cells: no effect
Gb3 in XF-498 cells
  change in slower migrating Gb3 band: no effect

## CCC(=O)O [propionate]
XF-498 cells [1]
  effect on XF-498 cell sensitivity to VT1 (in words): increased to a lesser extent
XF-498 cells [2]
  effect on morphology of XF-498 cells: similar, but less significant, morphological change
Gb3 in XF-498 cells; [5]
  change in slower migrating Gb3 band: selectively increased, but to a lesser extent
